Here are results for 15 molecules from patent US11071731B2, “Allosteric modulators of the mu opioid receptor” (Chiromics, LLC, priority 2017, dated 2021).

Test [1] concerns the target T1, mu opioid receptor (MOR) (Homo sapiens, UniProt P35372). In words: PathHunter β-arrestin recruitment assay, PAM mode with EC20 endomorphin-1. It is filed as cell-based. Conditions: for pEC50: read-out: β-arr. EC50. An outline of the steps:
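Enzyme fragment complementation read-out: β-gal ED fragment fused to receptor, EA fused to β-arrestin, recruitment restoring β-gal activity detected by chemiluminescence. EC50 and percent maximal response derived for each compound.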
(In general: Recruitment of arrestin is a read-out of receptor activation apart from second messengers.)

Test [2] deals with T1, mu opioid receptor (MOR). In words: Hit Hunter cAMP signaling assay (adenylyl cyclase inhibition), PAM mode with EC20 endomorphin-1. It is filed as cell-based.
The mark [3] stands for this setting: maximal response for β-arrestin recruitment.
The mark [4] stands for this setting: cAMP EC50, adenylyl cyclase inhibition.
[5] abbreviates: maximal response for adenylyl cyclase inhibition.
[6] abbreviates: adenylyl cyclase inhibition, read-out: cAMP EC50.
Setting [7] is: maximal response, β-arrestin recruitment.
The mark [8] stands for this setting: maximal response, adenylyl cyclase inhibition.

pEC50: −log10 of the molar value. Where only a bound is given, the exact number is not on record here.

The pEC50 is the EC50 on a negative log10 scale, so that one unit is a factor of ten.

T1 sequence (P35372 whole entry, the tested form may be a part): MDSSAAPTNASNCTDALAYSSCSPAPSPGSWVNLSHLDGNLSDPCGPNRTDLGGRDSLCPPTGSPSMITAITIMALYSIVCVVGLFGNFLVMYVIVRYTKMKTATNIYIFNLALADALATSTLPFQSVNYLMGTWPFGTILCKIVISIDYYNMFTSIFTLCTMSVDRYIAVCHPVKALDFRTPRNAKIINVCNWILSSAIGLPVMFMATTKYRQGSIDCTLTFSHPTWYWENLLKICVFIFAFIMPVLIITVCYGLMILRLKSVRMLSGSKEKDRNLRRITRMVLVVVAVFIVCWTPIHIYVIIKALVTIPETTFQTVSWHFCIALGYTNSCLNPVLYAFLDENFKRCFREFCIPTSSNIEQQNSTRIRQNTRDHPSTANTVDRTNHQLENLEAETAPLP

In the case of `COc1ccc(C2CCCCN2c2ccnc(Cl)n2)cc1Br` (stereo not shown) [compound 226], in test [1] (setting [3]), the “β-arr Max. Resp.” value was “F (F represents a maximal response of > 60%)”. The negative-log EC50 (pEC50) in test [1] (β-arrestin recruitment) and in test [2] (setting [4]) was under 5.68 each time. Besides, the “cAMP Max. Resp.” value in test [2] (setting [5]) is reported as “F (F represents a maximal response of > 60%)”.

Take `Cc1nc(C2CCCCN2c2nc(Cl)ncc2F)no1` (stereo not shown) [compound 409]: in test [1] (setting [3]), the “β-arr Max. Resp.” value is recorded as “D (D represents a maximal response of < 40%)”. The pEC50 in test [1] (β-arrestin recruitment) and in test [2] (setting [4]) was over 6.15 throughout. Moreover, the “cAMP Max. Resp.” value in test [2] (setting [5]) is “D (D represents a maximal response of < 40%)”.

As to `CN(C)CC(=O)N1CCN(c2nc(Cl)ncc2F)C(c2cc(F)cc(C(F)(F)F)c2)C1` (racemic) [Compound 306], the “β-arr Max. Resp.” value in test [1] (setting [3]) is listed as “D (D represents a maximal response of < 40%)”. The pEC50 in test [1] (β-arrestin recruitment) and in test [2] (setting [6]) was under 5.68 each time. The “cAMP Max. Resp.” value in test [2] (setting [5]) is “F (F represents a maximal response of > 60%)”.

In the case of `Cc1cnc(Cl)nc1N1CCCCC1c1cccc(F)n1` (stereo not shown) [compound 267], the “β-arr Max. Resp.” value in test [1] (setting [3]) is “D (D represents a maximal response of < 40%)”. For the same molecule, the pEC50 in test [1] (β-arrestin recruitment) and in test [2] (setting [4]) was under 5.68 throughout. Moreover, the “cAMP Max. Resp.” value in test [2] (setting [5]) is reported as “E (E represents a maximal response of 40-60%)”.

Regarding `Fc1cc(C2CC(F)CN2c2nc(Cl)ncc2F)cc(C(F)(F)F)c1` (stereo not shown) [compound 468], in test [1] (setting [7]), the “β-arr Max. Resp.” value is “F (F represents a maximal response of > 60%)”. Besides, the pEC50 in test [1] (β-arrestin recruitment) and in test [2] (setting [6]) was under 5.68 throughout. The “cAMP Max. Resp.” value in test [2] (setting [8]) is “F (F represents a maximal response of > 60%)”.

As for `CC1CC(c2cccc(C(F)(F)F)n2)N(c2nc(Cl)ncc2F)C1` (single isomer, unassigned) [compound 221], the “β-arr Max. Resp.” value in test [1] (setting [3]) is “D (D represents a maximal response of < 40%)”. Moreover, the pEC50 in test [1] (β-arrestin recruitment) and in test [2] (setting [6]) was under 5.68 throughout. Moreover, in test [2] (setting [5]), the “cAMP Max. Resp.” value is listed as “D (D represents a maximal response of < 40%)”.

As for `O=S(=O)(Cc1ccc(Cl)cc1)N1CCCC(F)C1c1ccc(F)c(Br)c1` (stereo not shown) [Compound 33], the pEC50 in test [1] (β-arrestin recruitment) and in test [2] (setting [6]) was under 5.68 throughout.

Consider `COc1ccc(C2CCCCN2c2ccc(C(F)(F)F)cn2)cc1Br` (stereo not shown) [compound 232], for which the “β-arr Max. Resp.” value in test [1] (setting [3]) was “F (F represents a maximal response of > 60%)”. The pEC50 in test [1] (β-arrestin recruitment) and in test [2] (setting [4]) was under 5.68 throughout. The “cAMP Max. Resp.” value in test [2] (setting [5]) was “F (F represents a maximal response of > 60%)”.

For the molecule `Fc1cnc(Cl)nc1N1CCCCC1c1ccc2ncccc2c1` (stereo not shown) [compound 326], the “β-arr Max. Resp.” value in test [1] (setting [3]) was “D (D represents a maximal response of < 40%)”. Further, the pEC50 in test [1] (β-arrestin recruitment) and in test [2] (setting [4]) was over 6.15 each time. Moreover, the “cAMP Max. Resp.” value in test [2] (setting [5]) was “D (D represents a maximal response of < 40%)”.

As for `CCN(CC)c1ncc(F)c(N2CCCCC2c2cccc(C(F)(F)F)c2)n1` (stereo not shown) [compound 254], the “β-arr Max. Resp.” value in test [1] (setting [3]) is “D (D represents a maximal response of < 40%)”. In addition, the pEC50 in test [1] (β-arrestin recruitment) and in test [2] (setting [4]) was under 5.68 each time. Besides, in test [2] (setting [5]), the “cAMP Max. Resp.” value is “E (E represents a maximal response of 40-60%)”.

As for `Fc1cnc(Cl)nc1N1CCCCC1c1cccc(C(F)(F)F)c1F` (stereo not shown) [compound 355], the “β-arr Max. Resp.” value in test [1] (setting [3]) is on record as “D (D represents a maximal response of < 40%)”. In addition, the pEC50 in test [1] (β-arrestin recruitment) and in test [2] (setting [4]) was over 6.15 in each case. The “cAMP Max. Resp.” value in test [2] (setting [5]) is on record as “D (D represents a maximal response of < 40%)”.

`Fc1ccc(C2C3CCC(C3)N2c2nc(Cl)ncc2F)cc1Br` (stereo not shown) [compound 136]: the “β-arr Max. Resp.” value in test [1] (setting [3]) is “F (F represents a maximal response of > 60%)”. Further, the pEC50 in test [1] (β-arrestin recruitment) and in test [2] (setting [4]) was under 5.68 throughout. Further, the “cAMP Max. Resp.” value in test [2] (setting [5]) is reported as “D (D represents a maximal response of < 40%)”.

Consider `Fc1ccc(C2CCCCN2Cc2cc(Cl)ccc2F)cc1Cl` (stereo not shown) [compound 160], for which, in test [1] (setting [3]), the “β-arr Max. Resp.” value was “F (F represents a maximal response of > 60%)”. Also, the pEC50 in test [1] (β-arrestin recruitment) and in test [2] (setting [4]) was 5.68 to 6.15 each time. The “cAMP Max. Resp.” value in test [2] (setting [5]) is “F (F represents a maximal response of > 60%)”.

Turning to `O=S(=O)(c1ccc(Cl)cc1)N1CCCCC1c1cc(F)cc(C(F)(F)F)c1` (racemic) [compound 50], in test [1] (setting [3]), the “β-arr Max. Resp.” value was “F (F represents a maximal response of > 60%)”. In addition, the pEC50 in test [1] (β-arrestin recruitment) is under 5.68; in test [2] (setting [6]), 5.68 to 6.15. The “cAMP Max. Resp.” value in test [2] (setting [5]) is on record as “D (D represents a maximal response of < 40%)”.

Take `Cc1cc(C)cc(N2CCCCC2c2ccc(F)c(Cl)c2)c1` (stereo not shown) [compound 471]: the “β-arr Max. Resp.” value in test [1] (setting [7]) was “F (F represents a maximal response of > 60%)”. For the same molecule, the negative logarithm of the EC50 (pEC50) in test [1] (β-arrestin recruitment) and in test [2] (setting [4]) was under 5.68 each time. Besides, in test [2] (setting [8]), the “cAMP Max. Resp.” value is recorded as “D (D represents a maximal response of < 40%)”.
